# Source: PubChem BioAssay AID2060484 (Molecular Pharmacology Branch, DTP, NCI, 2025)
# Test system: SUM149PT spheroids with HUVEC/MSC, viability
# Assay: Anticancer human tumor SUM149PT cell line growth inhibition [GQUAD];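 also: spheroids exposed to drugs for seven days before readout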;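 as to viability, T/C: percent viability relative to DMSO vehicle control taken as 100%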
# Conditions: for IC50: curve of first compound; for viability, T/C: stronger effect = lower value
# Excerpt: DNA G-quadruplex Stabilizer Agents in Combinations in Complex Spheroids
# A high-throughput screen of multi-cell type tumor spheroids was designed to identify active combinations of DNA G-quadruplex stabilizer agents and targeted small molecules. Complex spheroids include a stromal component modeled by human endothelial cells (HUVEC) and fibroblasts modeled by human mesenchymal stem cells (MSCs). The concentration ranges selected for each drug and investigational agent were based upon clinically achievable concentrations if the clinical Cmax of the agent was known.
# Compounds. The drugs and investigational agents: pidnarulex (CX-5461; NSC782164), APTO-253 (NSC789042), BRACO-19 (NSC847499), peposertib (NSC802822), ceralasertib (NSC780249), elimusertib (NSC800525), camonsertib (NSC841442), AZD-1390 (NSC803789), olaparib (NSC753686), talazoparib (NSC767125), ART-558 (NSC835418), sotorasib (NSC818433), MRTX-1133 (NSC836407), SN-38 (NSC673596), topotecan (NSC609699), etoposide (NSC141540), doxorubicin (NSC123127), gemcitabine (NSC613327), 5-fluorouracil (NSC19893), paclitaxel (NSC125973), vemurafenib (NSC761431), panobinostat (NSC761190), R-306465 (JNJ-16241199; NSC773264), adavosertib (NSC754352), TP-3654 (NSC805149), carboplatin (NSC241240), KSQ-4279 (NSC840948), and staurosporine (NSC755774) were obtained from the National Cancer Institute (NCI) Developmental Therapeutics Program Chemical Repository (34). The FDA-approved anticancer drug set is available from the NCI Developmental Therapeutics Program. […] The stock solutions were prepared in dimethyl sulfoxide (DMSO, Sigma-Aldrich, St. Louis, MO, cat. D2650) at 800-fold the tested concentration and stored at -70 degrees C prior to their use. All drugs and investigational agents were tested over a range starting from a high concentration at or near the clinical Cmax and decreasing in half-log increments. If the clinical Cmax for an agent had not been determined, the highest concentration tested was 10 microM.
# 2.3 Cell Culture. All cells were maintained in an incubator at 37 degrees C and 5% CO2 with 95% humidity. The PDC lines were cultured according to standard operating procedures established by the NCI PDMR. All PDCs were thawed and cultured in Matrigel-coated flasks prepared with a working solution of 1X Ham's F-12 nutrient mix, without supplementation (Invitrogen, cat. 11765054), 100 U/mL penicillin-streptomycin (Invitrogen, cat. 15140122), and 2.5% Matrigel (Corning Inc., cat. 354248) for the first three passages. The 857933-349-R-J2-PDC line was cultured in 6C/Colon 1B media, which includes advanced DMEM/F-12 (Thermo Fisher Scientific, cat. 12634028), 10 mM HEPES (Thermo Fisher Scientific, cat. 15630080), 1X GlutaMAX supplement (Thermo Fisher Scientific, cat. 35050061), 0.1 mg/mL primocin (InvivoGen, cat. ant-pm-2), 10% defined fetal bovine serum, heat inactivated (HyClone Laboratories Inc., cat. SH30070.03HI), 50% L-WRN conditioned media (ATCC, cat. CRL-3276), 1.25 mM N-Acetyl-L-cysteine (Sigma-Aldrich, cat. A9165), 10 mM nicotinamide (Sigma-Aldrich, cat. N0636), 1X B-27 supplement (Thermo Fisher Scientific, cat. 17504044), 1X N-2 supplement (Thermo Fisher Scientific, cat. 17502048), 10 microM Y-27632 dihydrochloride (Tocris Bioscience, cat. 1254), and 50 ng/mL human EGF recombinant protein (Thermo Fisher Scientific, cat. PHG0311). The 485176-168-R4-J1-PDC line was cultured in Panc media, which includes all 6C/Colon 1B media components plus 100 ng/mL human FGF-10 (Thermo Fisher Scientific, cat. 100-26), 500 nM SB-431542 (Selleckchem, cat. S1067), and gastrin (Tocris, cat. 3006).
# […]
# [1] = second compound 0.0316 µM, first compound 0.0316 µM
# [2] = second compound 0.0316 µM, first compound 0.1 µM
# [3] = second compound 0.0316 µM, first compound 0.316 µM
# [4] = second compound 0.0316 µM, first compound 1 µM
# [5] = second compound 0.0316 µM, first compound 3.16 µM
# [6] = second compound 0.0316 µM, first compound 10 µM
# [7] = second compound 0.1 µM, first compound 0.0316 µM
# [8] = second compound 0.1 µM, first compound 0.1 µM
# [9] = second compound 0.1 µM, first compound 0.316 µM
# [10] = second compound 0.1 µM, first compound 1 µM
# [11] = second compound 0.1 µM, first compound 3.16 µM
# [12] = second compound 0.1 µM, first compound 10 µM
# [13] = second compound 0.316 µM, first compound 0.0316 µM
# [14] = second compound 0.316 µM, first compound 0.1 µM
# [15] = second compound 0.316 µM, first compound 0.316 µM
# [16] = second compound 0.316 µM, first compound 1 µM
# [17] = second compound 0.316 µM, first compound 3.16 µM
# [18] = second compound 0.316 µM, first compound 10 µM
# [19] = second compound 1 µM, first compound 0.0316 µM
# [20] = second compound 1 µM, first compound 0.1 µM
# [21] = second compound 1 µM, first compound 0.316 µM
# [22] = second compound 1 µM, first compound 1 µM
# [23] = second compound 1 µM, first compound 3.16 µM
# [24] = second compound 1 µM, first compound 10 µM
# [25] = second compound 3.16 µM, first compound 0.0316 µM
# [26] = second compound 3.16 µM, first compound 0.1 µM
# [27] = second compound 3.16 µM, first compound 0.316 µM
# [28] = second compound 3.16 µM, first compound 1 µM
# [29] = second compound 3.16 µM, first compound 3.16 µM
# [30] = second compound 3.16 µM, first compound 10 µM
# [31] = second compound 10 µM, first compound 0.0316 µM
# [32] = second compound 10 µM, first compound 0.1 µM
# [33] = second compound 10 µM, first compound 0.316 µM
# [34] = second compound 10 µM, first compound 1 µM
# [35] = second compound 10 µM, first compound 3.16 µM
# [36] = second compound 10 µM, first compound 10 µM
compound,measurement,setting,value
COc1cc(C2c3cc4c(cc3C(OC3OC5COC(C)OC5C(O)C3O)C3COC(=O)C23)OCO4)cc(OC)c1O (centres undefined) + Cc1[nH]c2ccc(F)cc2c1-c1nc2c3cccnc3c3ncccc3c2[nH]1,IC50,second compound 0.0316 µM,875 nM
same,IC50,second compound 0.1 µM,554 nM
same,IC50,second compound 0.316 µM,784 nM
same,IC50,second compound 1 µM,830 nM
same,IC50,second compound 3.16 µM,807 nM
same,IC50,second compound 10 µM,607 nM
same,"viability, T/C",[1],102%
same,"viability, T/C",[2],86.1%
same,"viability, T/C",[3],56.3%
same,"viability, T/C",[4],49.9%
same,"viability, T/C",[5],38.5%
same,"viability, T/C",[6],18.4%
same,"viability, T/C",[7],105%
same,"viability, T/C",[8],77.7%
same,"viability, T/C",[9],50.7%
same,"viability, T/C",[10],47.1%
same,"viability, T/C",[11],36.8%
same,"viability, T/C",[12],18.5%
same,"viability, T/C",[13],93.2%
same,"viability, T/C",[14],82.3%
same,"viability, T/C",[15],54.4%
same,"viability, T/C",[16],46.9%
same,"viability, T/C",[17],38.2%
same,"viability, T/C",[18],15.4%
same,"viability, T/C",[19],97.6%
same,"viability, T/C",[20],84.4%
same,"viability, T/C",[21],51.3%
same,"viability, T/C",[22],54%
same,"viability, T/C",[23],36.5%
same,"viability, T/C",[24],13.5%
same,"viability, T/C",[25],88.2%
same,"viability, T/C",[26],77.3%
same,"viability, T/C",[27],58.2%
same,"viability, T/C",[28],49.3%
same,"viability, T/C",[29],33.3%
same,"viability, T/C",[30],12.9%
same,"viability, T/C",[31],81.9%
same,"viability, T/C",[32],74.7%
same,"viability, T/C",[33],48.2%
same,"viability, T/C",[34],49.4%
same,"viability, T/C",[35],33.5%
same,"viability, T/C",[36],14.3%
Cc1cccc(N(C)C(=O)C2C(O)CCN2c2nc(C)cc(C(F)(F)F)c2C#N)c1 (centres undefined) + Cc1[nH]c2ccc(F)cc2c1-c1nc2c3cccnc3c3ncccc3c2[nH]1,IC50,second compound 0.0316 µM,> 10000 nM
same,IC50,second compound 0.1 µM,> 10000 nM
same,IC50,second compound 0.316 µM,> 10000 nM
same,IC50,second compound 1 µM,> 10000 nM
same,IC50,second compound 3.16 µM,> 10000 nM
same,IC50,second compound 10 µM,> 10000 nM
same,"viability, T/C",[1],98.2%
same,"viability, T/C",[2],92.6%
same,"viability, T/C",[3],105%
same,"viability, T/C",[4],95.4%
same,"viability, T/C",[5],96.5%
same,"viability, T/C",[6],92.6%
same,"viability, T/C",[7],102%
same,"viability, T/C",[8],101%
same,"viability, T/C",[9],104%
same,"viability, T/C",[10],96.7%
same,"viability, T/C",[11],98%
same,"viability, T/C",[12],99%
same,"viability, T/C",[13],97.8%
same,"viability, T/C",[14],94.7%
same,"viability, T/C",[15],96%
same,"viability, T/C",[16],97.3%
same,"viability, T/C",[17],96.1%
same,"viability, T/C",[18],95.5%
same,"viability, T/C",[19],97.3%
same,"viability, T/C",[20],102%
same,"viability, T/C",[21],91.1%
same,"viability, T/C",[22],98%
same,"viability, T/C",[23],91.2%
same,"viability, T/C",[24],108%
same,"viability, T/C",[25],96.5%
same,"viability, T/C",[26],102%
same,"viability, T/C",[27],105%
same,"viability, T/C",[28],105%
same,"viability, T/C",[29],106%
same,"viability, T/C",[30],102%
same,"viability, T/C",[31],92.5%
same,"viability, T/C",[32],93%
same,"viability, T/C",[33],105%
same,"viability, T/C",[34],84.8%
same,"viability, T/C",[35],103%
same,"viability, T/C",[36],96.7%
